Measured values reported in patent US20250009891A1, “CONJUGATES OF MONOCYCLIC BETA-LACTAMS AND SIDEROPHORE MIMETICS” (UNIVERSITY OF NOTRE DAME DU LAC, priority 2021, published 2025).
Values after ≈ are worked out from the molar mass of the structure shown. Where two headings read alike, the source gives them in different places.

Key:
[1] = test system: Gram-negative bacteria; conditions: in words, cited from earlier work
[2] = test system: A. baumannii ATCC 17961; test: In vitro antibacterial assay (MIC); format: cell-based, Acinetobacter baumannii; conditions: duplicate assays
Procedure: (§1) Antibacterial assay results of new aztreonam derivatives (27, 30, 32 and 37), aztreonam (9a) and earlier data of conjugate 23 are shown in Table 1. The assays were performed using iron deficient media appropriate for screening siderophore conjugates as described previously. […] As expected, none of the compounds were active against the Gram-positive S. aureus. […] Of special interest is the significant inhibitory activity against problematic strains of A. baumannii and P. aeruginosa, including cephalosporinase and carbapenemase producers (A. baumannii TCC 17978 pNT320 and ATCC 17978 pNT165, respectively) which are on the World Health Organization (WHO) list of multi-drug resistant (MDR) pathogens of greatest concern.

[3] = test system: A. baumannii ATCC 17978 pNT165 (carbapenemase producing strain); test: In vitro antibacterial assay (MIC); format: cell-based, Acinetobacter baumannii; conditions: iron deficient media, duplicate assays
Procedure: as §1

[4] = test system: A. baumannii ATCC 17978 pNT320 (cephalosporinase producing strain); test: In vitro antibacterial assay (MIC); format: cell-based, Acinetobacter baumannii; conditions: iron deficient media, duplicate assays
Procedure: as §1

[5] = test system: A. baumannii ATCC BAA 1797; test: In vitro antibacterial assay (MIC); format: cell-based, Acinetobacter baumannii; conditions: duplicate assays
Procedure: as §1

[6] = test system: C. freundii ATCC 19063; test: In vitro antibacterial assay (MIC); format: cell-based; conditions: iron deficient media, duplicate assays
Procedure: as §1

[7] = test system: E. aerogenes X816; test: In vitro antibacterial assay (MIC); format: cell-based; conditions: iron deficient media, duplicate assays
Procedure: as §1

[8] = test system: K. pneumoniae ATCC 8303 X68; test: In vitro antibacterial assay (MIC); format: cell-based; conditions: duplicate assays
Procedure: as §1

[9] = test system: P. mirabilis X235; test: In vitro antibacterial assay (MIC); format: cell-based; conditions: iron deficient media, duplicate assays
Procedure: as §1

[10] = test system: P. aeruginosa 01; test: In vitro antibacterial assay (MIC); format: cell-based, Pseudomonas aeruginosa; conditions: iron deficient media, duplicate assays
Procedure: as §1

[11] = test system: P. aeruginosa ARC 3502; test: In vitro antibacterial assay (MIC); format: cell-based, Pseudomonas aeruginosa; conditions: iron deficient media, duplicate assays
Procedure: as §1

[12] = test system: P. aeruginosa ISR14-003; test: In vitro antibacterial assay (MIC); format: cell-based, Pseudomonas aeruginosa; conditions: iron deficient media, duplicate assays
Procedure: as §1

[13] = test system: P. aeruginosa ISR14-004; test: In vitro antibacterial assay (MIC); format: cell-based, Pseudomonas aeruginosa; conditions: iron deficient media, duplicate assays
Procedure: as §1

[14] = test system: P. aeruginosa KW799/wt; test: In vitro antibacterial assay (MIC); format: cell-based, Pseudomonas aeruginosa; conditions: iron deficient media, duplicate assays
Procedure: as §1

[15] = test system: E. coli DCO; test: In vitro antibacterial assay (MIC); format: cell-based, Escherichia coli; conditions: iron deficient media, duplicate assays
Procedure: as §1

[16] = test system: Gram-negative bacteria; test: Antibacterial activity, summary statements; format: cell-based; conditions: in words; for activity against Gram-negative bacteria that are resistant to aztreonam: iron deficient media
Procedure: as §1

[17] = test system: B. dolosa AU0018; test: In vitro antibacterial assay (MIC); format: cell-based
Procedure: as §1

[18] = test system: S. aureus SG511; test: In vitro antibacterial assay (MIC); format: cell-based; conditions: iron deficient media, duplicate assays
Procedure: as §1

[19] = Acinetobacter baumannii, ATCC17961, iron deficient media
[20] = Acinetobacter baumannii, ATCC17978, A. baumannii ATCC 17978 pNT165, carbapenemase producing
[21] = Acinetobacter baumannii, ATCC17978, A. baumannii ATCC 17978 pNT320, cephalosporinase producing
[22] = Acinetobacter baumannii, BAA1797, iron deficient media
[23] = Citrobacter freundii, ATCC19063, C. freundii ATCC 19063
[24] = Klebsiella aerogenes, X816, E. aerogenes X816
[25] = Klebsiella pneumoniae, ATCC8303, iron deficient media
[26] = Proteus mirabilis, X235, P. mirabilis X235
[27] = Pseudomonas aeruginosa, 01, P. aeruginosa 01
[28] = Pseudomonas aeruginosa, ARC3502, P. aeruginosa ARC 3502, read-out: MIC
[29] = Pseudomonas aeruginosa, ISR14003, P. aeruginosa ISR14-003, read-out: MIC
[30] = Pseudomonas aeruginosa, ISR14004, P. aeruginosa ISR14-004, read-out: MIC
[31] = Pseudomonas aeruginosa, KW799/WT
[32] = A. baumannii ATCC 17978 pNT320, cephalosporinase producing
[33] = P. aeruginosa ISR14-004, read-out: MIC

Row | Structure (SMILES) | MIC [2, 19] [µM] | MIC [3, 20] [µM] | MIC [4, 21] [µM] | MIC [5, 22] [µM] | MIC [6, 23] [µM] | MIC [7, 24] [µM] | MIC [8, 25] [µM] | MIC [9, 26] [µM] | MIC [10, 27] [µM] | MIC [11, 28] [µM] | MIC [12, 29] [µM] | MIC [13, 30] [µM] | MIC [14, 31] [µM] | MIC ([15]; Escherichia coli) [µM] | activity compared to bis-catechol conjugate 23 [16] | activity against Gram-negative bacteria that are resistant to aztreonam [16] | MIC [4, 32] [µM] | MIC ([7]; E. aerogenes X816) [µM] | MIC [14] [µM] | MIC ([18]; Staphylococcus aureus) [µM] | also measured
1 | CC1(C)[C@H](NC(=O)/C(=N\OCc2cc(=O)c(O)cn2O)c2csc(N)n2)C(=O)N1OS(=O)(=O)O [BAL 30072] | – | – | – | – | – | – | – | – | – | – | – | – | – | – | – | – | – | – | – | – | in vitro activity ([1]; compounds without free carboxylic acids): retained potent in vitro activity
2 | C[C@H]1[C@H](NC(=O)/C(=N\OC(C)(C)C(=O)NCCNC(=O)CN(CCCCNC(=O)c2ccc(O)c(O)c2Cl)C(=O)c2ccc(O)c(O)c2Cl)c2csc(N)n2)C(=O)N1S(=O)(=O)O [Compound 37] | 0.8 (≈ 0.757 µg/mL) | 25 (≈ 23.7 µg/mL) | 0.4 (≈ 0.379 µg/mL) | 0.8 (≈ 0.757 µg/mL) | < 0.025 | 0.8 (≈ 0.757 µg/mL) | 0.2 (≈ 0.189 µg/mL) | < 0.025 | 1.2 (≈ 1.14 µg/mL) | 4.5 (≈ 4.26 µg/mL) | 0.4 (≈ 0.379 µg/mL) | 0.2 (≈ 0.189 µg/mL) | 0.2 (≈ 0.189 µg/mL) | 0.4 (≈ 0.379 µg/mL) | comparable to or better than | notably and unexpectedly active | – | – | – | – | –
3 | CCN(C(C)C)C(C)C.C[C@H]1[C@H](NC(=O)/C(=N\OC(C)(C)C(=O)NOCC(=O)O)c2csc(N)n2)C(=O)N1S(=O)(=O)O [Compound 32, (Z)-2-(2-Aminothiazol-4-yl)-5,5-dimethyl-1-(((2S,3S)-2-methyl-4-oxo-1-sulfoazetidin-3-yl)amino)-1,6-dioxo-4,8-dioxa-3,7-diazadec-2-en-10-oic acid DIPEA salt] | – | – | – | – | – | – | – | – | – | – | – | – | – | – | – | – | >25 | 3 | 25 | – | MIC ([2]; iron deficient media): >25 µM; MIC ([5]; iron deficient media): >25 µM; MIC ([17]; B. dolosa AU0018, iron deficient media, duplicate assays): >25/(>25) μM; MIC ([6]; C. freundii ATCC 19063): 3 µM; MIC ([8]; iron deficient media): 0.8 µM; MIC ([9]; P. mirabilis X235): 0.05 µM; MIC [18]: >25 µM; MIC ([11]; P. aeruginosa ARC 3502): >25/(>25) μM; MIC ([12]; P. aeruginosa ISR14-003): >25/(>25) μM; MIC ([13]; P. aeruginosa ISR14-004): >25/(25) μM; MIC [15]: 1.6 µM; activity compared to aztreonam (9a) [16]: activity comparable to that of aztreonam
4 | C[C@H]1[C@H](NC(=O)/C(=N\OC(C)(C)C(=O)NOCC(=O)NCCNC(=O)CN(CCCCNC(=O)c2cccc(O)c2O)C(=O)c2cccc(O)c2O)c2csc(N)n2)C(=O)N1S(=O)(=O)O [Compound 30, (2S,3S)-3-((Z)-22-(2-Aminothiazol-4-yl)-7-(2,3-dihydroxybenzoyl)-1-(2,3-dihydroxyphenyl)-19,19-dimethyl-1,9,14,18-tetraoxo-16,20-dioxa-2,7,10,13,17,21-hexaazatricos-21-en-23-amido)-2-methyl-4-oxoazetidine-1-sulfonic acid] | 0.8 (≈ 0.761 µg/mL) | – | 3 (≈ 2.85 µg/mL) | 1.6 (≈ 1.52 µg/mL) | 0.4 (≈ 0.38 µg/mL) | 0.05 (≈ 0.0475 µg/mL) | 0.05 (≈ 0.0475 µg/mL) | < 0.013 | 0.8 (≈ 0.761 µg/mL) | – | 0.8 (≈ 0.761 µg/mL) | – | 0.8 (≈ 0.761 µg/mL) | 0.025 (≈ 0.0238 µg/mL) | comparable to or better than | notably and unexpectedly active | 1.6 (≈ 1.52 µg/mL) | – | 0.4 (≈ 0.38 µg/mL) | > 25 | MIC ([17]; Burkholderia dolosa, AU0018): > 25 µM; MIC ([10]; P. aeruginosa 01): 0.4 µM (≈ 0.38 µg/mL)
5 | C[C@H]1[C@H](NC(=O)/C(=N\OC(C)(C)C(=O)NCCNC(=O)CN(CCCCNC(=O)c2cccc(O)c2O)C(=O)c2cccc(O)c2O)c2csc(N)n2)C(=O)N1S(=O)(=O)O [Compound 27, (2S,3S)-3-((Z)-18-(2-Aminothiazol-4-yl)-7-(2,3-dihydroxybenzoyl)-1-(2,3-dihydroxy-phenyl)-15,15-dimethyl-1,9,14-trioxo-16-oxa-2,7,10,13,17-pentaazanonadec-17-en-19-amido)-2-methyl-4-oxoazetidine-1-sulfonic acid] | 0.8 (≈ 0.702 µg/mL) | 6 (≈ 5.27 µg/mL) | 1.6 (≈ 1.4 µg/mL) | 3 (≈ 2.63 µg/mL) | 0.4 (≈ 0.351 µg/mL) | 0.05 (≈ 0.0439 µg/mL) | 0.05 (≈ 0.0439 µg/mL) | < 0.013 | 0.8 (≈ 0.702 µg/mL) | 0.8 (≈ 0.702 µg/mL) | 0.8 (≈ 0.702 µg/mL) | 0.4 (≈ 0.351 µg/mL) | – | 0.025 (≈ 0.0219 µg/mL) | comparable to or better than | notably and unexpectedly active | 0.8 (≈ 0.702 µg/mL) | – | – | > 25 | MIC ([3]; A. baumannii ATCC 17978 pNT165, carbapenemase producing): 6.25 µM (≈ 5.49 µg/mL); MIC ([17]; Burkholderia dolosa, AU0018): > 25 µM; MIC ([10]; P. aeruginosa 01): 0.6 µM (≈ 0.527 µg/mL); MIC ([11]; P. aeruginosa ARC 3502, read-out: MIC): 1.6 µM (≈ 1.4 µg/mL); MIC ([12]; P. aeruginosa ISR14-003, read-out: MIC): 0.4 µM (≈ 0.351 µg/mL); MIC [13, 33]: 0.2 µM (≈ 0.176 µg/mL)
6 | C[C@H]1[C@H](NC(=O)/C(=N\OC(C)(C)C(=O)O)c2csc(N)n2)C(=O)N1S(=O)(=O)O [Aztreonam 9a, aztreonam, reference compound] | > 25 | > 25 | > 25 | > 25 | – | 1.6 (≈ 0.697 µg/mL) | 0.2 (≈ 0.0871 µg/mL) | – | – | > 25 | – | – | – | – | – | – | – | 0.8 (≈ 0.348 µg/mL) | 3 (≈ 1.31 µg/mL) | > 25 | MIC ([17]; Burkholderia dolosa, B. dolosa AU0018, iron deficient media, duplicate assays, read-out: MIC): > 25 µM; MIC [13, 33]: 6 µM (≈ 2.61 µg/mL); activity against problematic Gram-negative bacteria ([1]; including carbapenemase and cephalosporinase producing strains of P. aeruginosa and A. baumannii): not active
